This note sets out measurements from ChEMBL document CHEMBL1201862, “PubChem BioAssay data set” (2004).

Molecules are shown by their SMILES.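 Cells were grown in 96-well plates and exposed to each compound for 48 hours at five concentrations; endpoints were interpolated linearly between bracketing concentrations, or set to the highest concentration if not reached. At the GI50, growth is halved.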 The source made the active and inactive calls. Cut-off read from the data, not from the text of the source: active = GI50 up to about 1.1 µM and inactive = higher. A value given as a limit tells only on which side of the number the result lay.

Test systems include BT-549; CAKI-1; CCRF-CEM; HT-29; IGROV-1; KM12; M14; MDA-MB-231; Malme-3M; NCI-H522; OVCAR-3; OVCAR-4; RXF 393; SN12C; SNB-75; T47D; TK-10; UACC-62; SK-MEL-2; SK-MEL-5.
Assay in all cases: NCI tumour cell line growth inhibition, 48 h

Regarding `CN1CCN(c2ccc(-n3cc(C(=O)O)c(=O)c4cc(F)c(N5CCN(C)CC5)cc43)nc2)CC1`, the GI50 with BT-549 is 80 µM (inactive); in the experiment on CAKI-1, > 100 µM (inactive); in the experiment with CCRF-CEM, > 100 µM (inactive); in the experiment on HT-29 it was 65.5 µM (inactive); with IGROV-1, > 100 µM (inactive); in the experiment with KM12, 33.6 µM (inactive). Besides, the GI50 in the experiment with M14 was > 100 µM (inactive); with MDA-MB-231, > 100 µM (inactive); with Malme-3M, 95.5 µM (inactive); in the experiment on NCI-H522, 78.5 µM (inactive); in the experiment on OVCAR-3, > 100 µM (inactive); in the experiment with OVCAR-4, > 100 µM (inactive). Besides, the GI50 in the experiment with RXF 393, in the experiment with SN12C, with SNB-75, with T47D, in the experiment on TK-10 and in the experiment on UACC-62 was > 100 µM (inactive) in each case.

`CC(C)CCC[C@@H](C)[C@H]1CC[C@H]2[C@@H]3CC=C4C[C@@H](OC(=O)c5cccc6c(=O)c7ccccc7[nH]c56)CC[C@]4(C)[C@H]3CC[C@]12C`: the GI50 in the experiment on BT-549 was > 75 µM (inactive); in the experiment with HT-29 it was > 75 µM (inactive); in the experiment with IGROV-1, > 75 µM (inactive); in the experiment on KM12 it was > 75 µM (inactive); with M14 it was > 75 µM (inactive); in the experiment on MDA-MB-231, 3.91 µM (inactive). The GI50 with Malme-3M was > 75 µM (inactive); in the experiment on NCI-H522, > 75 µM (inactive); in the experiment on OVCAR-3, > 75 µM (inactive); in the experiment on OVCAR-4, 3.5 µM (inactive); in the experiment on RXF 393, > 75 µM (inactive); with SK-MEL-2 it was > 75 µM (inactive). Moreover, the GI50 is > 75 µM (inactive) in the experiment on SK-MEL-5; 1.92 µM (inactive) in the experiment on SN12C; > 75 µM (inactive) with SNB-75; > 75 µM (inactive) with T47D; > 75 µM (inactive) in the experiment on TK-10; > 75 µM (inactive) in the experiment on UACC-62.

For `O=C(/C=C/C(=O)N1CCCC1)N1CCCC1`, the GI50 in the experiment on BT-549, in the experiment with CAKI-1, in the experiment on CCRF-CEM, with HT-29, with IGROV-1 and in the experiment with KM12 was > 100 µM (inactive) throughout. The GI50 with M14, in the experiment with MDA-MB-231, with Malme-3M, in the experiment on NCI-H522, in the experiment with OVCAR-3 and with OVCAR-4 was > 100 µM (inactive) each time. For the same compound, the GI50 in the experiment with RXF 393, in the experiment on SK-MEL-2, in the experiment on SK-MEL-5, in the experiment with SN12C, in the experiment on T47D and in the experiment with TK-10 was > 100 µM (inactive) throughout. The GI50 in the experiment with UACC-62 was > 100 µM (inactive).

Take `COC(=O)[C@]1(C)CCC[C@@]2(C)C1CC[C@@]13C=C(C(C)C)[C@@H](CC1=O)CC23` (stereo partly drawn): the GI50 in the experiment on BT-549 is 23 µM (inactive); in the experiment on CAKI-1, 34.2 µM (inactive); with CCRF-CEM, 17.7 µM (inactive); in the experiment with HT-29, 18.2 µM (inactive); in the experiment with IGROV-1, 35.2 µM (inactive); in the experiment on KM12 it was 34.5 µM (inactive). For the same compound, the GI50 is 38.5 µM (inactive) in the experiment with M14; 30.3 µM (inactive) in the experiment on MDA-MB-231; 18.6 µM (inactive) in the experiment with NCI-H522; 21.4 µM (inactive) in the experiment with OVCAR-3; 35.2 µM (inactive) in the experiment with OVCAR-4; 21.5 µM (inactive) in the experiment with RXF 393. In addition, the GI50 in the experiment with SK-MEL-5 was 16.5 µM (inactive); with SN12C, 19.8 µM (inactive); with SNB-75, 59.7 µM (inactive); with T47D, 32.4 µM (inactive); in the experiment on TK-10 it was 43.8 µM (inactive); in the experiment with UACC-62, 28.6 µM (inactive).

For the compound `O=C1CC(c2ccc(O)cc2)C2(O1)C(=O)OC(C(O)CO)C2O` (stereo not drawn), the GI50 in the experiment with BT-549, in the experiment with CAKI-1, with CCRF-CEM, in the experiment with HT-29, in the experiment on IGROV-1 and in the experiment on KM12 was > 100 µM (inactive) in each case. The GI50 in the experiment with M14 is > 100 µM (inactive); in the experiment on MDA-MB-231, > 100 µM (inactive); in the experiment on Malme-3M it was 96.2 µM (inactive); in the experiment on OVCAR-3, > 100 µM (inactive); in the experiment with RXF 393, > 100 µM (inactive); with SK-MEL-2, > 100 µM (inactive). Also, the GI50 with SK-MEL-5, with SN12C, with SNB-75, in the experiment with T47D, in the experiment on TK-10 and in the experiment on UACC-62 was > 100 µM (inactive) in each case.

`C[C@@H](CC(=O)O)OC1OC(COC(=O)C(C)(C)C)C(OC(=O)C(C)(C)C)C(OC(=O)C(C)(C)C)C1OC(=O)C(C)(C)C` (stereo partly drawn): the GI50 in the experiment on BT-549 is 57 µM (inactive); with CAKI-1, 62.2 µM (inactive); in the experiment with CCRF-CEM it was 26.5 µM (inactive); with HT-29, 39 µM (inactive); in the experiment on IGROV-1, 72.3 µM (inactive); in the experiment with KM12, 45.7 µM (inactive). In addition, the GI50 in the experiment with M14 was > 100 µM (inactive); with MDA-MB-231 it was > 100 µM (inactive); with NCI-H522, 57 µM (inactive); with OVCAR-3, 64.7 µM (inactive); in the experiment on RXF 393, 45.3 µM (inactive); with SK-MEL-2, 49 µM (inactive). Besides, the GI50 in the experiment with SK-MEL-5 was 29.6 µM (inactive); in the experiment on SN12C, 48.2 µM (inactive); in the experiment with SNB-75, 72.8 µM (inactive); with T47D, 45.9 µM (inactive); in the experiment on TK-10 it was 99.3 µM (inactive); in the experiment with UACC-62 it was 71.9 µM (inactive).

With `Cc1ccc(/N=N/C(=N/c2ccccc2)c2ccc(N(CCC#N)CCC#N)cc2)cc1`, the GI50 in the experiment on BT-549 is 13.2 µM (inactive); in the experiment on CAKI-1 it was 55.5 µM (inactive); in the experiment with CCRF-CEM, 35.6 µM (inactive); in the experiment with HT-29, 30.9 µM (inactive); in the experiment with IGROV-1, 20.3 µM (inactive); in the experiment on KM12 it was 24.3 µM (inactive). In addition, the GI50 with M14 is 33.4 µM (inactive); with MDA-MB-231, 22.1 µM (inactive); in the experiment on NCI-H522, 17.4 µM (inactive); with OVCAR-3 it was 20.1 µM (inactive); in the experiment with OVCAR-4, 42.6 µM (inactive); in the experiment on RXF 393 it was 22.3 µM (inactive). In addition, the GI50 is 19.7 µM (inactive) in the experiment on SK-MEL-2; 22.9 µM (inactive) with SK-MEL-5; 31.9 µM (inactive) with SN12C; 31.1 µM (inactive) in the experiment with SNB-75; 23.7 µM (inactive) in the experiment with T47D; 27.2 µM (inactive) with TK-10. Besides, the GI50 in the experiment with UACC-62 was 21.8 µM (inactive).

For `COC1(OC)C[C@H](C)[C@@]23O[C@]24c2cc(O)c5c(c2N[C@H]3C#C/C=C\C#C[C@]14O)C(=O)c1ccccc1C5=O`, the GI50 with BT-549 was 0.00519 µM (active); in the experiment with CAKI-1, 0.005 µM (active); in the experiment with CCRF-CEM, < 0.001 µM (active); with HT-29, 0.00655 µM (active); with IGROV-1, 0.0148 µM (active); in the experiment with M14 it was 0.005 µM (active). The GI50 is 0.0142 µM (active) in the experiment with MDA-MB-231; 0.005 µM (active) in the experiment with Malme-3M; 0.00635 µM (active) in the experiment with NCI-H522; 0.0431 µM (active) in the experiment on OVCAR-3; 0.0964 µM (active) in the experiment with OVCAR-4; 0.005 µM (active) in the experiment on RXF 393. The GI50 is 0.005 µM (active) in the experiment on SK-MEL-5; 0.00136 µM (active) with SN12C; 0.005 µM (active) with SNB-75; 0.005 µM (active) in the experiment on T47D; 0.0245 µM (active) in the experiment on TK-10; 0.005 µM (active) with UACC-62.

For `CC(=O)Oc1ccc2cc(Oc3cc(Cl)c(Cl)cc3Cl)c(=O)oc2c1`, the GI50 in the experiment on BT-549 is 13.1 µM (inactive); in the experiment on CAKI-1 it was 18 µM (inactive); with CCRF-CEM, 14 µM (inactive); in the experiment on HT-29, 16.8 µM (inactive); with IGROV-1, 11.2 µM (inactive); in the experiment on KM12, 13 µM (inactive). Besides, the GI50 is 18.2 µM (inactive) in the experiment on M14; 16.4 µM (inactive) in the experiment on MDA-MB-231; 15.3 µM (inactive) with Malme-3M; 16.7 µM (inactive) in the experiment on NCI-H522; 16 µM (inactive) in the experiment on OVCAR-3; 34.5 µM (inactive) in the experiment on OVCAR-4. For the same compound, the GI50 is 14.6 µM (inactive) with RXF 393; 11.9 µM (inactive) in the experiment on SK-MEL-5; 14.6 µM (inactive) in the experiment with SN12C; 19.6 µM (inactive) with SNB-75; 27.2 µM (inactive) in the experiment on T47D; 24.8 µM (inactive) in the experiment on TK-10.

Turning to `CC1=CC(=O)N(n2c(Cc3ccccc3)n[nH]c2=O)C1=O`, the GI50 was > 100 µM (inactive) with BT-549; > 100 µM (inactive) in the experiment on CAKI-1; 23.3 µM (inactive) in the experiment with CCRF-CEM; > 100 µM (inactive) in the experiment on HT-29; > 100 µM (inactive) with IGROV-1; > 100 µM (inactive) in the experiment on KM12. The GI50 in the experiment on M14, in the experiment on MDA-MB-231, in the experiment on Malme-3M, in the experiment with NCI-H522, in the experiment on OVCAR-3 and in the experiment with OVCAR-4 was > 100 µM (inactive) in each case. The GI50 in the experiment on RXF 393 is > 100 µM (inactive); in the experiment on SK-MEL-2 it was > 100 µM (inactive); in the experiment on SK-MEL-5, > 100 µM (inactive); with SN12C it was > 100 µM (inactive); in the experiment with T47D, 98.4 µM (inactive); in the experiment on TK-10, > 100 µM (inactive). The GI50 in the experiment on UACC-62 was > 100 µM (inactive).
